{
  "source": "patent US6649658B1",
  "about": "“(−)-Verbenone derivatives” (Euphar Group SRL, priority 1999, dated 2003)",
  "key": {"[1]": {"tested_on": "Carrageenin-induced Oedema", "assay": "Carrageenin-induced oedema in the rat per os", "type": "in vivo", "details": "200 mg/kg, maximum effect 120 minutes after administration", "from_the_text": "(§1) The anti-inflammatory activity of 3-amino-(−)-verbenone-5-sulphosalicylate was compared with that of (−)-verbenone in accordance with methods described in the literature (C. A. WINTER et al. Carrageenin induced edema in hind paw of the rat as an assay for antinflammatory drugs. Proc. Soc. Exp. Biol. Med. 111, 544, 1962. CURVOISIER et al. Action of chlorpromazine on the edema produced by dextran in rats. Arch. Inter. Pharmacodynamie, 102, 33-54, 1955. B. B. NEWBOULD) Chemotherapy of arthritis induced in rats by microbacterial adjuvant. Brit. J. Pharmacol. 21, 127-135, 1963. J. V. HURLEY et al. Reagin-Like antibodies in animals immune to helminth parasites. Nature (Lond.) 204, 91, 1964. ROTHKOPF et al. Arzneimittel Forschung 26, 225-235, 1976. C. A. WINTER et al. Antitussive compounds: testing methods and results. J. Pharmacol. Exp. Ther. 112, 99, 1954. G. OSTERLOH Arzneimittel Forschung, 16, 901, 1966); the results are given hereinafter in schematic form.\n1. Carrageenin-induced Oedema in the Rat per OS\n(§2) Parameter: percentage volumetric inhibition; maximum effect 120 minutes after administration: […]"}, "[2]": {"tested_on": "Carrageenin-induced Oedema", "assay": "Carrageenin-induced oedema in the rat by the intraperitoneal route", "type": "in vivo", "details": "120 mg/kg, maximum effect 120 minutes after administration", "from_the_text": "as §1\n2. Carrageenin-induced Oedema in the Rat by the Intraperitoneal Route\nas §2"}, "Adjuvant Arthritis": {"tested_on": "Adjuvant Arthritis", "assay": "Adjuvant arthritis in the rat by the intraperitoneal route", "type": "in vivo", "details": "60 mg/kg, day 28", "from_the_text": "as §1\n3 Adjuvant Arthritis in the Rat by the Intraperitoneal Route\nParameter: percentage inhibition of the volumetric increase of the lower limbs; day “28”: […]"}, "[3]": {"tested_on": "Turpentine-induced Pleurisy", "assay": "Turpentine-induced pleurisy in the rat by the intraperitoneal route", "type": "in vivo", "details": "60 mg/kg", "from_the_text": "as §1\n4. Turpentine-induced Pleurisy in the Rat by the Intraperitoneal Route\nParameter: percentage inhibition of the volume of exudate and of leukocyte migration: […]"}, "[4]": {"tested_on": "Carrageenin-induced Pleurisy", "assay": "Carrageenin-induced pleurisy in the rat per os", "type": "in vivo", "details": "180 mg/kg", "from_the_text": "as §1\n5. Carrageenin-induced Pleurisy in the Rat per OS\n(§3) Parameter: percentage inhibition of the volume of exudate: […]"}, "[5]": {"tested_on": "Carrageenin-induced Pleurisy", "assay": "Carrageenin-induced pleurisy in the rat by the intraperitoneal route", "type": "in vivo", "details": "25 mg/kg", "from_the_text": "as §1\n6. Carrageenin-induced Pleurisy in the Rat by the Intraperitoneal Route\nas §3"}, "[6]": {"tested_on": "Acrolein-induced Aerosol (inflammation of the airways)", "assay": "Acrolein-induced aerosol in the guinea pig by the intraperitoneal route", "type": "in vivo", "details": "30 mg/kg, residual inflammation after treatment (lower is better)", "from_the_text": "as §1\n7. Acrolein-induced Aerosol in the Guinea Pig by the Intraperitoneal Route\nParameter: inflammation of the upper, middle, lower airways: scores (double blind):\n(§4) N. B. It should be emphasised in this connection that the results of Examples 1-6 have been given as a percentage of volumetric inhibition; Examples 7 and 8, however, indicate inflammation and adverse gastric action of a residual nature after treatment."}, "Adverse Gastric Activity": {"tested_on": "Adverse Gastric Activity", "assay": "Adverse gastric activity in the rat per os (Osterloh)", "type": "in vivo", "details": "for evaluation of adverse gastric action according to Osterloh: rat, per os, 360 mg/kg, residual adverse gastric action after treatment", "from_the_text": "as §1\n8. Adverse Gastric Activity in the Rat per OS\nParameter: evaluation of adverse gastric action according to Osterloh\nas §4"}, "Water solubility": {"assay": "Water solubility", "type": "physicochemical", "details": "in words"}, "[7]": {"assay": "Stability on storage or handling", "type": "physicochemical", "details": "in words"}},
  "data": [
    {"compound": "3-Aminoverbenone-5-sulphosalicylate [3-amino-(−)-verbenone-5-sulphosalicylate]", "values": [
      {"measurement": "percentage volumetric inhibition", "setting": "[1]", "result": 78, "unit": "%"},
      {"measurement": "percentage volumetric inhibition", "setting": "[2]", "result": 67, "unit": "%"},
      {"measurement": "percentage inhibition of the volumetric increase of the lower limbs", "setting": "Adjuvant Arthritis", "result": 64, "unit": "%"},
      {"measurement": "percentage inhibition of the volume of exudate and of leukocyte migration", "setting": "[3]", "result": 68, "unit": "%"},
      {"measurement": "percentage inhibition of the volume of exudate", "setting": "[4]", "result": 72, "unit": "%"},
      {"measurement": "percentage inhibition of the volume of exudate", "setting": "[5]", "result": 64, "unit": "%"},
      {"measurement": "inflammation of the upper, middle, lower airways: scores (double blind)", "setting": "[6]", "result": 18},
      {"measurement": "evaluation of adverse gastric action according to Osterloh", "setting": "Adverse Gastric Activity", "result": 0.85},
      {"measurement": "adverse gastric activity compared with (−)-verbenone", "setting": "Adverse Gastric Activity; test 8, in words", "result": "substantially lower adverse gastric activity"}
    ]},
    {"compound": "CC1=CC(=O)[C@H]2C[C@@H]1C2(C)C", "note": "[(−)-verbenone, (1S,5S)-4,6,6-Trimethylbicyclo[3.1.1]hept-3-en-2-one]", "values": [
      {"measurement": "percentage volumetric inhibition", "setting": "[1]", "result": 63, "unit": "%"},
      {"measurement": "percentage volumetric inhibition", "setting": "[2]", "result": 48, "unit": "%"},
      {"measurement": "percentage inhibition of the volumetric increase of the lower limbs", "setting": "Adjuvant Arthritis", "result": 39, "unit": "%"},
      {"measurement": "percentage inhibition of the volume of exudate and of leukocyte migration", "setting": "[3]", "result": 49, "unit": "%"},
      {"measurement": "percentage inhibition of the volume of exudate", "setting": "[4]", "result": 46, "unit": "%"},
      {"measurement": "percentage inhibition of the volume of exudate", "setting": "[5]", "result": 48, "unit": "%"},
      {"measurement": "inflammation of the upper, middle, lower airways: scores (double blind)", "setting": "[6]", "result": 24},
      {"measurement": "evaluation of adverse gastric action according to Osterloh", "setting": "Adverse Gastric Activity", "result": 2},
      {"measurement": "solubility in water", "setting": "Water solubility", "result": "water-insolubility"},
      {"measurement": "stability", "setting": "[7]", "result": "instability over time"}
    ]},
    {"compound": "C=C1C=C(N2CCCC2)[C@H]2C[C@H]1C2(C)C", "note": "[Compound 9c, (1S,5S)-6,6-Dimethyl-4-methylene-2-pyrrolidinobicyclo[3.1.1]hept-2-ene]", "values": [
      {"measurement": "stability", "setting": "[7]", "result": "sensitive to oxygen, moisture and light"}
    ]}
  ]
}
